Here are results for seven compounds from BindingDB's records for PubMed 12232544 (Emory University, 2002).

Values joined by “and” are separate entries in the source; they are usually repeats but may differ in a detail not shown here. Equal entries are not always repeated. Structures can show the parent of a compound that is named as a salt.

The target of experiment [1] is Histamine H1 receptor (Cavia porcellus, UniProt P31389).
Experiment [2] concerns the target T1, 5-hydroxytryptamine receptor 2C (Sus scrofa, UniProt K7GSR7).
T1 sequence (K7GSR7 whole entry): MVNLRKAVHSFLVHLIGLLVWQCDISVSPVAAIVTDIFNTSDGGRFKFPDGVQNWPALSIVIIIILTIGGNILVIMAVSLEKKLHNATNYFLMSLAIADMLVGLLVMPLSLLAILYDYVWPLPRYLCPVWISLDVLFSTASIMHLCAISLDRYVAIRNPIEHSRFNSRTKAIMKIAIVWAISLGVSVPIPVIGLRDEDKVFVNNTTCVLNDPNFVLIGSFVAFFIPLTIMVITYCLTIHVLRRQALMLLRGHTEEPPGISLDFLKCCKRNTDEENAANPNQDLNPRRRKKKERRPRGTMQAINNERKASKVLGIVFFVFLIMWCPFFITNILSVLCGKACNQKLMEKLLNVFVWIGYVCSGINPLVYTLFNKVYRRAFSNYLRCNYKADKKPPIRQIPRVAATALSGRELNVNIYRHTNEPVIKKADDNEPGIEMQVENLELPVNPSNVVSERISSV

For experiment [3], the target named is T2, Alpha-1A adrenergic receptor (Homo sapiens, UniProt P35348).
T2 sequence (P35348 whole entry): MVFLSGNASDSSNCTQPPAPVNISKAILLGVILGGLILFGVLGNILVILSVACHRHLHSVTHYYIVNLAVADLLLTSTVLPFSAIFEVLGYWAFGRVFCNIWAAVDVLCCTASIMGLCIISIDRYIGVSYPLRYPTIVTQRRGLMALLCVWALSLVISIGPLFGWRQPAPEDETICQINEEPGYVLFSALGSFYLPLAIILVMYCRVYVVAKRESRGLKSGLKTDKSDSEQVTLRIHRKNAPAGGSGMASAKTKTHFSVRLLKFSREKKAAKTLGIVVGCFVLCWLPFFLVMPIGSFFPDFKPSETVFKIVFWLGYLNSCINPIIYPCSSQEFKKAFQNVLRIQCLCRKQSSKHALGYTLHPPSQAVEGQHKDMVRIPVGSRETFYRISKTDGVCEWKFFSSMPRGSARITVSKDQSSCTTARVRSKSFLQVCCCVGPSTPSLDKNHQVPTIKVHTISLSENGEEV

Chain of Histamine H1 receptor (P31389 whole entry): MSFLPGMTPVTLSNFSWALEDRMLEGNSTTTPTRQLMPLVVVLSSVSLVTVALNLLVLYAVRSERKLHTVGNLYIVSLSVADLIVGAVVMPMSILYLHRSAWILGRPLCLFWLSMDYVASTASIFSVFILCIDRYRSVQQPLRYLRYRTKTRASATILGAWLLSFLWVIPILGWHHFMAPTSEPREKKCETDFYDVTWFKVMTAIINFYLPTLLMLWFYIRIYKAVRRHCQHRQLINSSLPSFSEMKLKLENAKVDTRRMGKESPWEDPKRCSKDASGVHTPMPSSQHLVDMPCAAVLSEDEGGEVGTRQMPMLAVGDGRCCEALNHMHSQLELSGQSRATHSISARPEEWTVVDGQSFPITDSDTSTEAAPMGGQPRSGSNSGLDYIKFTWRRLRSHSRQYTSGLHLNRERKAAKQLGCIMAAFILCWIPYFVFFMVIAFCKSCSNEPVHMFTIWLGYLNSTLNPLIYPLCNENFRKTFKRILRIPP

The Ki is a measure of affinity in units of concentration, obtained from inhibition or displacement. Take `Fc1ccc([C@@H]2CCNC[C@H]2COc2ccc3c(c2)OCO3)cc1` [PAROXETINE]: the values for the Ki in experiment [1] and in experiment [2] were above 10000 nM and 9030 nM, respectively.
As for `CN(C)CCCC1(c2ccc(F)cc2)OCc2cc(C#N)ccc21` (stereo not drawn) [CITALOPRAM HYDROBROMIDE], the Ki in experiment [1] was 283 nM and 1970 nM; in experiment [2], 2050 nM and 2530 nM.
`CNCC[C@@H](Oc1ccc(C(F)(F)F)cc1)c1ccccc1` [Prozac] had a Ki in experiment [1] of 1550 nM.
Take `COCCCC/C(=N\OCCN)c1ccc(C(F)(F)F)cc1` [(1E)-5-methoxy-1-[4-(trifluoromethyl)phenyl]pentan-1-one O-(2-aminoethyl)oxime]: the Ki in experiment [1] was above 10000 nM; in experiment [2] it was 5790 nM.
In experiment [1], `CNCC[C@@H](Oc1ccc(C(F)(F)F)cc1)c1ccccc1` [Fluoxetine-R-(-)] had a Ki of 812 nM.
`CN(C)CCC[C@]1(c2ccc(F)cc2)OCc2cc(C#N)ccc21` [R-citalopram]: the Ki in experiment [1] came to 181 nM; in experiment [2], 1800 nM.
`CN[C@@H]1CC[C@@H](c2ccc(Cl)c(Cl)c2)c2ccccc21` [[4-(3,4-Dichloro-phenyl)-1,2,3,4-tetrahydro-naphthalen-1-yl]-methyl-amine]: the inhibitory constant (Ki) in experiment [1] was found to be 6580 nM; in experiment [3], 188 nM; in experiment [2] it was 2300 nM.
